Experiments:
[1] = molecular target: T1, mitoKATP (endogenous, mouse liver mitochondria) (Mus musculus, UniProt Q9CXJ4); test: […]+ uptake, isolated liver mitochondria; type: biochemical; details: 1 mM MgCl2, 1 uM oligomycin, pH 7.2
T1 sequence (Q9CXJ4 26-717): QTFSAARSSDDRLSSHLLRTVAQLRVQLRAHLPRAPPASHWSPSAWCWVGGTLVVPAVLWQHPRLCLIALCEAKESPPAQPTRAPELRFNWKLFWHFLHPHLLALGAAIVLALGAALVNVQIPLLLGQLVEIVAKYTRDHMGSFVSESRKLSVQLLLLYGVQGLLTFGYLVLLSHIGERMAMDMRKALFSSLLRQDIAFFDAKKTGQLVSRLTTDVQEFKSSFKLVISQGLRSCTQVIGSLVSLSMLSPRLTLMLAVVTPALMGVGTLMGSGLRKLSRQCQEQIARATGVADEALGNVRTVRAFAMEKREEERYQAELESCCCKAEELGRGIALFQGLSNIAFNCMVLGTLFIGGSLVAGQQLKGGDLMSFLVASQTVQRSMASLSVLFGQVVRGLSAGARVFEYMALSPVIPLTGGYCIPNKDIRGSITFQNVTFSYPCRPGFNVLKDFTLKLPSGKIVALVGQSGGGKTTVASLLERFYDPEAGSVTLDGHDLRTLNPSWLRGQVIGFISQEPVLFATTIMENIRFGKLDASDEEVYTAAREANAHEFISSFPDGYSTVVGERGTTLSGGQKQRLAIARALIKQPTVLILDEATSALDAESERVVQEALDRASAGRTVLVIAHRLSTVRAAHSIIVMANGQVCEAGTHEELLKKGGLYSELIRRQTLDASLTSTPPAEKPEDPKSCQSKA
T1 sequence (Q3URS9 36-406 partner): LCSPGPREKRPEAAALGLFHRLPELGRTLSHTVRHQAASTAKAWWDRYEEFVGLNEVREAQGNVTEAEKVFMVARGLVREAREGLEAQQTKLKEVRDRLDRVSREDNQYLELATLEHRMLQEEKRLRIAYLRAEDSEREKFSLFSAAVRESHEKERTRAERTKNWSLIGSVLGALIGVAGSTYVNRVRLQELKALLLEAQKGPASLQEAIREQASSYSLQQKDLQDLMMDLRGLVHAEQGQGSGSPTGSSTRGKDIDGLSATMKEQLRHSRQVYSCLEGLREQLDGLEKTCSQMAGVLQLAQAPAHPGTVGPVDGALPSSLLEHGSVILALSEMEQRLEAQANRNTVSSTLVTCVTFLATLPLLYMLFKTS

[2] = molecular target: T2, mitoKATP (endogenous, HeLa mitochondria) (Homo sapiens, UniProt Q9NUT2); test: mitochondrial swelling; type: biochemical; details: KCl swelling buffer, 1 mM MgCl2, 1 uM oligomycin, pH 7.2
T2 sequence (Q9NUT2 26-735): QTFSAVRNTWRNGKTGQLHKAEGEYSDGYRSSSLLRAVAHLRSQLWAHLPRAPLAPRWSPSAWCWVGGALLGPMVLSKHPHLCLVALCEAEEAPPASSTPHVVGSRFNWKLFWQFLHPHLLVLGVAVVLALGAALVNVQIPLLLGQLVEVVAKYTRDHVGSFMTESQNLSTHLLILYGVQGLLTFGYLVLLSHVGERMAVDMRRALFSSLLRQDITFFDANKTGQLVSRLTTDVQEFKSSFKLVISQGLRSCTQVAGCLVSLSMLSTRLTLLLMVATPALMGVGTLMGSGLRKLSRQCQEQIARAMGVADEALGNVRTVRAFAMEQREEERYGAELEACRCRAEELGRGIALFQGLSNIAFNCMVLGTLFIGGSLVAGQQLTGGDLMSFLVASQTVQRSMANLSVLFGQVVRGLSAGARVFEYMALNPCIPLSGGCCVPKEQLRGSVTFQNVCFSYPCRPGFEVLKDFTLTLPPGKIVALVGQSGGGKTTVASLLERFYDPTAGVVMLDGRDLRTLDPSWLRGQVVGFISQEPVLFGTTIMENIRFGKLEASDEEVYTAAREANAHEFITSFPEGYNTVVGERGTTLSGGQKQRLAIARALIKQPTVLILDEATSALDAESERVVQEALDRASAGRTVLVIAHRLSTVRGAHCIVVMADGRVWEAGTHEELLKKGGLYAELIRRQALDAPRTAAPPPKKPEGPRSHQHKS
T2 sequence (Q96ER9 36-411 partner): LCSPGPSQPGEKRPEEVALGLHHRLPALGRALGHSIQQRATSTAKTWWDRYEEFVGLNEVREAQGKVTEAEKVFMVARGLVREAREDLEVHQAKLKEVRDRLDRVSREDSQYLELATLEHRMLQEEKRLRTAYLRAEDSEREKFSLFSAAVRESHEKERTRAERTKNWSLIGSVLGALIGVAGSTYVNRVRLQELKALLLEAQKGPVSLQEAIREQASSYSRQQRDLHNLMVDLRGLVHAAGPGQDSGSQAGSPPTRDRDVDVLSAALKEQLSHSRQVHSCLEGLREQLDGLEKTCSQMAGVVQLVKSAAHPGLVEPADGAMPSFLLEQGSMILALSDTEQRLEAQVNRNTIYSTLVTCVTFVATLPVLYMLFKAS

SMILES	86Rb+ uptake, isolated liver mitochondria ([1]; inhibitor, 2 mM ATP)	mitochondrial swelling (A520), isolated HeLa mitochondria ([2]; inhibitor)	86Rb+ uptake, isolated liver mitochondria ([1]; activator, 50 uM diazoxide)	mitochondrial swelling (A520), isolated HeLa mitochondria ([2]; activator)
Nc1ncnc2c1ncn2[C@@H]1O[C@H](COP(=O)(O)OP(=O)(O)OP(=O)(O)O)[C@@H](O)[C@H]1O [ATP]	neither ATP nor diazoxide were able to alter K^+ fluxes when Mitok was absent	ATP decreases and diazoxide increases the swelling rates		
CC1=NS(=O)(=O)c2cc(Cl)ccc2N1 [diazoxide]			neither ATP nor diazoxide were able to alter K^+ fluxes when Mitok was absent	ATP decreases and diazoxide increases the swelling rates
